Test results reported in PubChem BioAssay AID248 (DTP/NCI, 2004).
Where “and” joins values, the source holds several entries; their conditions need not be identical. Identical values can stand only once. Inconclusive results and toxic doses are left out. Rule as the data show it: active = T/C of 150% or more; inactive = T/C below 125%.

System: L1210 leukemia ip in BDF1 mice, survival T/C
Test: NCI In Vivo Anticancer Drug Screen. Data for tumor model L1210 Leukemia (intraperitoneal) in B6D2F1 (BDF1) mice
Conditions: endpoint: mean survival time, higher = longer survival
How it was run: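 Transplanted-tumor mice were given test agent; controls received vehicle only. Survival readings from the two groups were divided (treated over control).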

[1] = dose: 100.0 mg/kg/injection, schedule: Q01DX001 (ip), vehicle: carboxymethylcellulose (CMC)
[2] = dose: 200.0 mg/kg/injection, schedule: Q01DX001 (ip), vehicle: carboxymethylcellulose (CMC)
[3] = dose: 400.0 mg/kg/injection, schedule: Q01DX001 (ip), vehicle: carboxymethylcellulose (CMC)
[4] = dose: 100.0 mg/kg/injection, schedule: Q01DX001 (ip), vehicle: saline with Tween-80
[5] = dose: 200.0 mg/kg/injection, schedule: Q01DX001 (ip), vehicle: saline with Tween-80
[6] = dose: 400.0 mg/kg/injection, schedule: Q01DX001 (ip), vehicle: saline with Tween-80
[7] = dose: 100.0 mg/kg/injection, schedule: Q04DX003 (ip), vehicle: saline with Tween-80
[8] = dose: 200.0 mg/kg/injection, schedule: Q04DX003 (ip), vehicle: saline with Tween-80
[9] = dose: 400.0 mg/kg/injection, schedule: Q04DX003 (ip), vehicle: saline with Tween-80
[10] = dose: 50.0 mg/kg/injection, schedule: Q01DX009 (ip), vehicle: saline with Tween-80
[11] = dose: 100.0 mg/kg/injection, schedule: Q01DX009 (ip), vehicle: saline with Tween-80
[12] = dose: 200.0 mg/kg/injection, schedule: Q01DX009 (ip), vehicle: saline with Tween-80
[13] = dose: 100.0 mg/kg/injection, schedule: Q01DX001 (ip), vehicle: saline
[14] = dose: 200.0 mg/kg/injection, schedule: Q01DX001 (ip), vehicle: saline
[15] = dose: 400.0 mg/kg/injection, schedule: Q01DX001 (ip), vehicle: saline
[16] = dose: 100.0 mg/kg/injection, schedule: Q04DX002 (ip), vehicle: saline with Tween-80
[17] = dose: 200.0 mg/kg/injection, schedule: Q04DX002 (ip), vehicle: saline with Tween-80
[18] = dose: 400.0 mg/kg/injection, schedule: Q04DX002 (ip), vehicle: saline with Tween-80
[19] = dose: 50.0 mg/kg/injection, schedule: Q01DX001 (ip), vehicle: saline
[20] = dose: 100.0 mg/kg/injection, schedule: Q01DX009 (ip), vehicle: Klucel (hydroxypropylcellulose) (HPC)
[21] = dose: 200.0 mg/kg/injection, schedule: Q01DX009 (ip), vehicle: Klucel (hydroxypropylcellulose) (HPC)
[22] = dose: 400.0 mg/kg/injection, schedule: Q01DX009 (ip), vehicle: Klucel (hydroxypropylcellulose) (HPC)
[23] = dose: 100.0 mg/kg/injection, schedule: Q04DX003 (ip), vehicle: Klucel (hydroxypropylcellulose) (HPC)
[24] = dose: 200.0 mg/kg/injection, schedule: Q04DX003 (ip), vehicle: Klucel (hydroxypropylcellulose) (HPC)
[25] = dose: 400.0 mg/kg/injection, schedule: Q04DX003 (ip), vehicle: Klucel (hydroxypropylcellulose) (HPC)
[26] = dose: 25.0 mg/kg/injection, schedule: Q04DX003 (ip), vehicle: saline with Tween-80
[27] = dose: 50.0 mg/kg/injection, schedule: Q04DX003 (ip), vehicle: saline with Tween-80

Measured: T/C

CCN(CC)C1=C(Cl)C(=O)C(=O)c2cccnc21
inactive: dose: 18.8 mg/kg/injection, schedule: Q04DX003 (ip), vehicle: saline 97 % of control | dose: 37.5 mg/kg/injection, schedule: Q04DX003 (ip), vehicle: saline 103 % of control | dose: 75.0 mg/kg/injection, schedule: Q01DX001 (ip), vehicle: saline 97 % of control

CCCCCc1cc(O)c2c3c(c(=O)oc2c1)CCC(=O)C3
inactive: [1] 97 % of control | [2] 100 % of control | [3] 97 % of control

CC(=O)N(NC(=O)c1ccccn1)C(C)=O
inactive: dose: 100.0 mg/kg/injection, schedule: Q01DX001 (ip), vehicle: water 97 % of control | dose: 200.0 mg/kg/injection, schedule: Q01DX001 (ip), vehicle: water 106 % of control

CCCCCCCCCCCCCCCCC
inactive: [4] 113 % of control | [5] 108 % of control | [6] 97 % of control

COC(=O)c1cc(Cl)ccc1OCC(=O)NCc1ccc(Cl)cc1
inactive: [7] 89 % of control | [8] 102 % of control | [9] 88 % of control

C=CCSC(C)CC (centres undefined)
inactive: [10] 95 % of control | [11] 101 % of control | [7] 96 % of control | [12] 92 % of control | [8] 96 % of control

Nc1nc2nn(-c3ccccc3)nc2c(=O)[nH]1
inactive: [7] 100 % of control | [8] 93 % of control | [9] 94 % of control

CCCCCCCCC[n+]1ccc(C(N)=O)cc1
inactive: [7] 98 % of control

CC(=O)OCC(OC(C)=O)C(OC(C)=O)C(OC(C)=O)C(COC(=O)c1ccccc1)OC(=O)c1ccccc1 (centres undefined)
inactive: [4] 108 % of control | [5] 89 % of control | [6] 104 % of control

CCOCCOC(=O)c1ccc(C(N)=NC)cc1
inactive: [13] 91 % of control | [14] 94 % of control | [15] 94 % of control

O=C(NCCCCc1ccccc1)c1ccc([N+](=O)[O-])s1
inactive: dose: 50.0 mg/kg/injection, schedule: Q01DX005 (ip), vehicle: water 94 % of control | dose: 100.0 mg/kg/injection, schedule: Q01DX005 (ip), vehicle: water 87 % of control | dose: 200.0 mg/kg/injection, schedule: Q01DX005 (ip), vehicle: water 94 % of control | dose: 400.0 mg/kg/injection, schedule: Q01DX005 (ip), vehicle: water 94 % of control

O=C1OC(/C=C/c2ccccc2)=NC/1=C\c1ccc2c(c1)OCO2
inactive: [16] 92 % of control | [17] 89 % of control | [18] 92 % of control

O=C(O)C12C3(Cl)C4(Cl)C5(OCCO5)C5(Cl)C3(Cl)C1(Cl)C5(Cl)C42Cl (centres undefined)
inactive: [19] 105 % of control | [13] 102 % of control | [14] 100 % of control

CC(C)(C)OC(=O)CC(O)c1ccccc1 (centres undefined)
inactive: [19] 94 % of control | [13] 102 % of control | [14] 105 % of control | [15] 102 % of control

CCc1ccccc1NC(=O)Nc1ccccc1C(N)=O
inactive: [20] 87 % of control | [21] 93 % of control | [22] 93 % of control

C=CC(=O)N1c2ccccc2N(C(=O)C=C)C(C)C1C (centres undefined)
inactive: [13] 112 % of control | [14] 104 % of control | [15] 98 % of control

CCCCCCCCCCCS(=O)(=O)C(CCOS(C)(=O)=O)COS(C)(=O)=O (centres undefined)
inactive: [20] 93 % of control | [23] 100 % of control | [21] 95 % of control | [24] 98 % of control | [25] 96 % of control

CSC(c1ccccc1Cl)=[N+]1CCCCC1
inactive: [23] 104 % of control | [24] 88 % of control | [25] 93 % of control

COc1ccccc1CN1CCCN(Cc2ccccc2OC)C1c1ccc(C2N(Cc3ccccc3OC)CCCN2Cc2ccccc2OC)cc1
inactive: dose: 100.0 mg/kg/injection, schedule: Q01DX001 (ip), vehicle: acetone 102 % of control | dose: 200.0 mg/kg/injection, schedule: Q01DX001 (ip), vehicle: acetone 96 % of control | dose: 400.0 mg/kg/injection, schedule: Q01DX001 (ip), vehicle: acetone 96 % of control

CCCCCCCC1N(C)CCCN1C
inactive: dose: 25.0 mg/kg/injection, schedule: Q01DX009 (ip), vehicle: saline with Tween-80 88 % of control | [26] 93 % of control | [10] 95 % of control | [27] 96 % of control | [7] 95 % of control and 92 % of control

Clc1nn2cnnc2c2ccccc12
inactive: dose: 20.0 mg/kg/injection, schedule: Q04DX003 (ip), vehicle: saline 110 % of control

CC(C)CCCC(C)C1CCC2C3C(=O)C=C4CC(O)CCC4(C)C3CCC12C (centres undefined)
inactive: dose: 100.0 mg/kg/injection, schedule: Q01DX009 (sc), vehicle: steriod suspending solution 106 % of control | dose: 100.0 mg/kg/injection, schedule: Q04DX003 (sc), vehicle: steriod suspending solution 100 % of control | dose: 200.0 mg/kg/injection, schedule: Q01DX009 (sc), vehicle: steriod suspending solution 96 % of control | dose: 200.0 mg/kg/injection, schedule: Q04DX003 (sc), vehicle: steriod suspending solution 115 % of control | dose: 400.0 mg/kg/injection, schedule: Q01DX009 (sc), vehicle: steriod suspending solution 98 % of control | dose: 400.0 mg/kg/injection, schedule: Q04DX003 (sc), vehicle: steriod suspending solution 107 % of control

O=C(O)C1CCC(C(=O)O)c2ccccc21 (centres undefined)
inactive: dose: 12.5 mg/kg/injection, schedule: Q04DX003 (ip), vehicle: Klucel (hydroxypropylcellulose) (HPC) 91 % of control | dose: 25.0 mg/kg/injection, schedule: Q04DX003 (ip), vehicle: Klucel (hydroxypropylcellulose) (HPC) 96 % of control | dose: 50.0 mg/kg/injection, schedule: Q04DX003 (ip), vehicle: Klucel (hydroxypropylcellulose) (HPC) 102 % of control | [23] 93 % of control and 91 % of control | [24] 95 % of control | [25] 88 % of control and 91 % of control

CN(C)N=Nc1ccc(S(C)(=O)=O)cc1
inactive: dose: 25.0 mg/kg/injection, schedule: Q04DX002 (ip), vehicle: saline with Tween-80 105 % of control | dose: 50.0 mg/kg/injection, schedule: Q04DX002 (ip), vehicle: saline with Tween-80 102 % of control | [16] 102 % of control and 106 % of control | [17] 116 % of control | [18] 97 % of control

CCN(CC)c1ccc(N=C2C=C(C(=O)Nc3ccc(C(=O)O)cc3)C(=O)c3ccccc32)c(C)c1
inactive: [13] 102 % of control | [14] 100 % of control | [15] 102 % of control

COc1ccc(C(=O)/C=C/c2ccc(OC)c(OC)c2)cc1
inactive: [23] 95 % of control | [24] 92 % of control | [25] 100 % of control

CC12CCCC=C1CC(C(C)(C)O)CC2 (centres undefined)
inactive: [10] 96 % of control | [11] 100 % of control | [12] 100 % of control

COc1cc(OC)cc(C(=O)NCCCl)c1
inactive: dose: 50.0 mg/kg/injection, schedule: Q01DX001 (ip), vehicle: carboxymethylcellulose (CMC) 101 % of control | [1] 110 % of control | [2] 107 % of control | [3] 107 % of control

CC1(C)C2CCC(CCO)C1C2 (centres undefined)
inactive: dose: 12.5 mg/kg/injection, schedule: Q04DX003 (ip), vehicle: saline with Tween-80 92 % of control | dose: 25.0 mg/kg/injection, schedule: Q01DX009 (ip), vehicle: saline 96 % of control | [26] 88 % of control | dose: 50.0 mg/kg/injection, schedule: Q01DX009 (ip), vehicle: saline 92 % of control | [27] 95 % of control | dose: 100.0 mg/kg/injection, schedule: Q01DX009 (ip), vehicle: saline 88 % of control | [7] 92 % of control

Cc1ccc(SSc2ccc(C)cc2[N+](=O)[O-])c([N+](=O)[O-])c1
inactive: [20] 92 % of control | [23] 97 % of control | [21] 91 % of control | [24] 90 % of control | [22] 90 % of control | [25] 94 % of control
